Key:
Caco-2 cells [1] = test: Baseline mannitol flux across Caco-2 monolayers on transwell inserts; format: cell-based, human; conditions: increasing concentrations of CGP, FIG. 1
Description: Experiments were conducted on Caco-2 cells, a line of heterogeneous human epithelial colorectal adenocarcinoma cells derived from a colorectal carcinoma and grown on transwell permeable inserts. Despite their origins, in culture these cells express the characteristics of small intestinal enterocytes upon prolonged culture (C. Jumarie et al. J Cell. Physiol. 149: 24-33, (1991)). They are widely used as a model of transepithelial transport in the small intestine, and are considered a model for celiac disease (G. Iacomino et al. J Agric Food Chem. 6; 61(5):1088-962013 (2013); I. Caputo et al. PLoS One. 7(9):e45209 (2012); T. Rauhavirta et al. J Clin Immunol.; 33(1):134-42 (2013)).
The TEER results are verified by measuring the flux of mannitol, a polyhydroxy alcohol, across the cell monolayer. Mannitol flux is exclusively by the paracellular route, so that its movement is inversely proportional to the tightness of the tight junctions. Flux is measured in both apical to basolateral and basolateral to apical directions. The rate of flux is used to calculate a permeability coefficient for the monolayers. […]
Baseline values were obtained for each of these parameters in unstimulated cells in the presence and absence of increasing concentrations of CGP. The time course of TEER development, as well as the appropriate concentration of CGP, was determined experimentally. […]

Caco-2 cells [2] = test: Baseline trans-epithelial electrical resistance (TEER); format: cell-based, human
Caco-2 cells [3] = test: Baseline sphingosine 1-phosphate in media by ELISA; format: cell-based, human; conditions: 24 hours incubation, increasing concentrations of CGP, FIG. 3
Description: It is believed that CGP elevates S1P concentrations by inhibiting dephosphorylation. S1P concentrations are measured in the media of Caco-2 cells using a commercially available ELISA kit (e.g., Echelon Catalog # K-1900). The S1P concentrations are measured in the media of Caco-2 cells in the presence and absence of CGP. Cells were incubated for 24 hours in the presence of increasing concentrations of CGP. The media was removed and assayed for […] by enzyme-linked immunoassay (ELISA).

Caco-2 cells [4] = test: Baseline E-cadherin expression; format: cell-based, human
Description: (3) E-Cadherin Expression:
E-cadherin is the principle protein of tight junctions. The level of E-cadherin is measured in homogenized Caco-2 cells by western blot analysis using commercially available antibodies. Since it is possible that E-cadherin might be expressed as a protein, but sequestered away from the cell membrane, surface E-cadherin is also measured using either flow cytometry or fluorescent microscopy. The ratio of surface to total E-cadherin is calculated. The expression levels of E-cadherin are measured in Caco-2 cells in the presence and absence of CGP. The expression levels of other proteins of tight junctions in Caco-2 cells in the presence or absence of CGP can also be measured using methods known in the art in view of the present disclosure.

Caco-2 cells [5] = test: Mannitol Flux Assay under ischemia-mimicking conditions (no glucose, 1% oxygen); format: cell-based, human
Description: Mannitol Flux Assay was performed as follows. At the start of the experiment (time 0), the media on the cells was changed to one containing no glucose and no fetal calf serum, and the environment was changed from 95% […]/5% CO2, to 1% oxygen, 5% CO2 and 94% nitrogen. These conditions mimic ischemia (no food, no oxygen).
It was observed that cells responded to the ischemia conditions by letting go of non-essential functions, like maintaining tight junctions. It appears that by adding CGP, the cells were able to retain tight junction integrity for a longer period of time.
Specifically, Table 2 and FIG. 4 show the percentage increase in mannitol penetration at two and four hours after CGP administration. The movement of mannitol is inversely proportional to the tightness of the tight junctions. It can be seen that the magnitude of the increase in tightness of the tight junctions (or decrease in mannitol flux) was proportional to the concentration of CGP in the media. While it is possible that the cells are merely using the glycerol phosphate to replace glucose, this is extremely unlikely, as the effect persists even at 0.000001 molar CGP. The usual glucose concentration in the media is around 10 mM, ten times greater than the highest CGP concentration, and 10,000 times greater than the lowest concentration of CGP.

Caco-2 cells [6] = test: Apical to basolateral [14C]mannitol flux during hypoxia; format: cell-based, human; conditions: FIG. 5
Description: (§1) The effect of hypoxia on transepithelial permeability was measured for each parameter in the presence and absence of CGP. Cells were grown to confluence in normoxic conditions on transwell inserts, then transferred to a hypoxia chamber (95% N2/5% CO2) and media was changed to one sparged with 95% N2/5% CO2 and containing no glucose. Under these conditions, which simulate ischemia, the partial pressure of residual oxygen is less than 25 mm Hg (6%). Control wells contained only media; the remaining wells contained increasing concentrations of calcium glycerophosphate. TEER and mannitol flux were measured in the hypoxia chamber. E-Cadherin expression or S1P determination was determined in room air using samples prepared in the hypoxia chamber. Hypoxia may decrease TEER and S1P, increase both apical to basolateral and basolateral to apical mannitol flux without changing E-cadherin expression. These effects may be mitigated by CGP.
Hypoxia/ischemia is a state of diminished oxygen and nutrient supply such that cellular demands are not met. […] It was hypothesized that the increased transepithelial permeability is the consequence of intestinal hypoxia (itself a consequence of diversion of blood flow from the gut during heavy exercise), and that the permeability might be alleviated by CGP treatment. […]

Caco-2 cells [7] = test: TEER during hypoxia; format: cell-based, human; conditions: FIG. 6
Description: as §1
Hypoxia/ischemia is a state of diminished oxygen and nutrient supply such that cellular demands are not met. […]
For these studies, cells were grown on transwells until confluent, as measured by TEER values of […]. As there is some variability in baseline TEER, all data have been expressed as a % of baseline TEER. […]

Caco-2 cells [8] = test: Transepithelial mannitol flux induced by cytomix; format: cell-based, human; conditions: cytomix plus CGP, FIG. 7
Description: The effect of exogenous cytokines was measured for each parameter in the presence and absence of CGP. […] Cells were grown to confluence on transwell inserts, then challenged with a mixture of the cytokines TNFα (tumor necrosis factor alpha), ILβ (interleukin beta), and IFγ (interferon gamma) (“cytomix”) in the presence or absence of increasing concentrations of CGP. At the appropriate time points, apical to basolateral mannitol flux was measured. TEER, E-Cadherin expression and media concentrations of S1P were measured in separate experiments.

Caco-2 cells [9] = test: TEER during cytomix treatment; format: cell-based, human; conditions: FIG. 8
Description: The effect of exogenous cytokines was measured for each parameter in the presence and absence of CGP. Both hypoxia and celiac disease are characterized by the release of cytokines by cells of the immune system. These inflammatory mediators increase monolayer permeability (M. Bayardo et al. Clin Exp Immunol.; 168(1):95-104 (2012)). Cells were grown to confluence on transwell inserts, then challenged with a mixture of the cytokines TNFα (tumor necrosis factor alpha), ILβ (interleukin beta), and IFγ (interferon gamma) (“cytomix”) in the presence or absence of increasing concentrations of CGP. At the appropriate time points, apical to basolateral mannitol flux was measured. TEER, E-Cadherin expression and media concentrations of S1P were measured in separate experiments. […] Exogenous cytokines may decrease TEER and increase mannitol flux.
Cytokines are a category of small proteins that are important in cell-cell signaling. There are many types and functions of cytokines. Three of the cytokines, TNFα (tumor necrosis factor alpha), ILβ (interleukin beta), and IFγ (interferon gamma) are involved in cell signaling during inflammation. […] First, neutrophils and other cells mediating the immune response are recruited to ischemic tissue. Second, the intestinal damage of celiac disease is dependent on inflammation. […]

Solubility in water = format: physicochemical
cultured enterocytes = conditions: cited from earlier work

## O=P([O-])([O-])OCC(O)CO.[Ca+2] (centres unmarked) [CGP, 1,2,3-propanetriol, mono(dihydrogen phosphate) calcium salt (1:1)]
Caco-2 cells [1]
  effect on baseline mannitol flux across the barrier: no significant effect
Caco-2 cells [2]; FIG. 2
  persistence of the CGP effect on baseline TEER: gone by four hours
Caco-2 cells [2]; FIG. 2, noticeable at two hours
  effect on the citrate-induced reduction in baseline TEER: prevented
Caco-2 cells [3]
  effect on sphingosine 1-phosphate concentrations in the media: does not appear to have any effect
Caco-2 cells [4]
  effect on E-Cadherin expression: may increase, but most likely does not change
Caco-2 cells [5]; CGP 0.000001 M, 2 hours
  mannitol penetration, Disintegrations Per Minute: 77.04 Disintegrations Per Minute
Caco-2 cells [5]; CGP 0.000001 M, 4 hours
  mannitol penetration, Disintegrations Per Minute: 275.0632 Disintegrations Per Minute
Caco-2 cells [5]; CGP 0.00001 M, 2 hours
  mannitol penetration, Disintegrations Per Minute: 67.95 Disintegrations Per Minute
Caco-2 cells [5]; CGP 0.00001 M, 4 hours
  mannitol penetration, Disintegrations Per Minute: 195.9237 Disintegrations Per Minute
Caco-2 cells [5]; CGP 0.0001 M, 2 hours
  mannitol penetration, Disintegrations Per Minute: 50.47 Disintegrations Per Minute
Caco-2 cells [5]; CGP 0.0001 M, 4 hours
  mannitol penetration, Disintegrations Per Minute: 188.7996 Disintegrations Per Minute
Caco-2 cells [5]; CGP 0.001 M, 2 hours
  mannitol penetration, Disintegrations Per Minute: 23.11 Disintegrations Per Minute
Caco-2 cells [5]; CGP 0.001 M, 4 hours
  mannitol penetration, Disintegrations Per Minute: 150.2845 Disintegrations Per Minute
Caco-2 cells [5]; ischemia-mimicking conditions, Table 2 and FIG. 4
  lowest CGP concentration at which the effect on mannitol penetration persists: 1000 nM
Caco-2 cells [6]
  time dependence of the effect on hypoxia induced mannitol flux: diminished by four hours and absent by five hours
Caco-2 cells [6]; concentration dependent
  effect on hypoxia induced mannitol flux: significantly reduced
Caco-2 cells [7]
  effect on TEER during hypoxia (% of baseline TEER): preserved TEER in a concentration dependent manner
  time dependence of the effect on TEER during hypoxia: by five hours there was no longer a discernible effect
Caco-2 cells [8]
  effect on cytomix-induced increase in mannitol permeability: delayed the permeability increase in a concentration-dependent manner
Caco-2 cells [9]; 24 hours
  CGP effect on TEER: all CGP effect was lost
Caco-2 cells [9]; ten hours, all CGP treated groups except 1 μM
  TEER versus cytomix alone and control: significantly greater than cytomix alone and not different from control
Solubility in water
  solubility in water: approximately 1 gram in 100 mL

## CCCCCCCCCCCCC/C=C/[C@@H](O)[C@@H](N)COP(=O)(O)O [S1P, sphingosine-1-phosphate]
Cultured enterocytes
  effect on tightness of existing tight junctions: increases
